Assays:
Conditions in all cases: read-out: Melibiose displacement of D ^ 2 G (IC 50); 10 μM D2G, 20 mM NaCl, 100 mM KPi pH 7.5
MelBSt (WT) [1] = target: MelBSt (WT) (Salmonella enterica, UniProt P30878, L5M)
MelBSt (WT) [2] = target: MelBSt (WT) (Salmonella enterica, UniProt P30878, L5M/R141C)
MelBSt (WT) [3] = target: MelBSt (WT) (Salmonella enterica, UniProt P30878, L5M/R295C)
MelBSt (WT) [4] = target: MelBSt (WT) (Salmonella enterica, UniProt P30878, L5M/R363C)

Q: With `OC[C@H]1O[C@H](OC[C@H]2OC(O)[C@H](O)[C@@H](O)[C@@H]2O)[C@H](O)[C@@H](O)[C@H]1O` (stereo partly shown) [melibiose] as the compound, how does the IC50 (MelBSt (WT) [1]) read?
A: The IC50 was 2.65 ± 0.8 mM.

Q: And the IC50 (MelBSt (WT) [2])?
A: Its IC50 is 5.93 ± 1.61 mM.

Q: And the IC50 (MelBSt (WT) [3])?
A: The IC50 was 4.04 ± 0.42 mM.

Q: And the IC50 (MelBSt (WT) [4])?
A: The IC50 was 2.83 ± 0.57 mM.

Reference: publication PMC4026327 (Nature Communications, 2014)
